Measured values as given in patent US20240298638A1, “METHODS AND COMPOSITIONS FOR REDUCING MICROBIAL CONTAMINANTS DURING POULTRY PROCESSING” (DIVERSEY, INC., priority 2020, published 2024).

Tested on: Salmonella Enterica ATCC 10708
Assay: Antimicrobial efficacy on inoculated chicken drumettes (log10 reduction, nBPW neutralizer; Colby synergy)
Format: cell-based
Conditions: for Observed Average Reduction (AntiLog10 value): antiLog10 of the observed log10 reduction; for Observed Average Reduction (AntiLog10 value) / Observed Average Log10 Reduction: Salmonella Enterica ATCC 10708; for Observed Average Log10 Reduction: chicken drumettes soaked 90 seconds in composition, recovery in nBPW neutralizer

Compound | antimicrobial efficiency of the organic solvent by itself (by itself) | Observed Average Reduction (AntiLog10 value) | Observed Average Log10 Reduction [log10]
CC(O)CO (centres unmarked) [Propylene glycol] | did not provide any antimicrobial efficiency | – | –
CCC(=O)O [propionic acid] | – | 6.17 | 0.79
CC(=O)OO [PAA, peracetic acid] | – | 14.15 | 1.16
